Reference: patent publication US3974140A, “Ureidoacetamido-penicillins” (Bayer Aktiengesellschaft, priority 1970, dated 1976)

How the values were obtained:
Assay in all cases: MIC, liquid medium test tube series dilution test
Staph. aureus 133 = format: cell-based, Staphylococcus aureus; conditions: Staph. aureus 133, 24 hours, 37°C
Description: (§1) The chemotherapeutic activity of the new penicillins was tested in vivo and in vitro. The in vitro inhibition values (MIC = minimum inhibition concentration (see Tables 1 and 2) were determined in a liquid medium in the test tube series dilution test, with readings being taken after 24 hours' incubation at 37°C. The MIC is indicated by the non-turbid test tube in the dilution series. A complete medium of the following composition was used as the nutrient medium:
(§2) The figures quoted in the Examples for the effectiveness against certain bacteria (units/ml) are minimum inhibitory concentrations in the test tube series dilution test after 24 hours' incubation.

Proteus vulg. 3400 = format: cell-based, Proteus vulgaris; conditions: Proteus vulg. 3400, 24 hours, 37°C
Description: as §1, §2

Klebsiella 63 = format: cell-based; conditions: Klebsiella 63, 24 hours, 37°C
Description: as §1, §2

E. coli A 261 = format: cell-based; conditions: E. coli A 261, 24 hours, 37°C
Description: as §1, §2

E. coli C 165 = format: cell-based; conditions: E. coli C 165, 24 hours, 37°C
Description: as §1, §2

[1] = tested on: Streptoc. faec. ATCC 9790; format: cell-based; conditions: Strep. faec. (Enterococcus) ATCC 9790, 24 hours, 37°C
Description: as §1, §2

Psdm. aerug. Walter = format: cell-based, Pseudomonas aerug.; conditions: 24 hours, 37°C
Description: as §1, §2

Proteus vulg. 1017 = format: cell-based, Proteus vulgaris; conditions: Proteus vulg. 1017, 24 hours, 37°C
Description: as §1, §2

| MIC (Staph. aureus 133) | MIC (Proteus vulg. 3400) | MIC (Klebsiella 63) | MIC (E. coli A 261) | MIC (E. coli C 165) | MIC [1] | MIC (Psdm. aerug. Walter) | MIC (Proteus vulg. 1017) | Molecule |
| --- | --- | --- | --- | --- | --- | --- | --- | --- |
| < 0.8 units/ml |  |  |  |  |  |  |  | CC(=O)N(Cc1ccccc1)C(=O)N[C@@H](C(=O)N[C@@H]1C(=O)N2[C@@H]1SC(C)(C)[C@@H]2C(=O)O)c1ccccc1 [Example 87] |
| 0.8-4 units/ml | > 500 units/ml | > 500 units/ml | > 500 units/ml | 100-500 units/ml | 100-500 units/ml | > 500 units/ml |  | CN(C)C(=O)N(C)C(=O)NC(C(=O)N[C@@H]1C(=O)N2[C@@H]1SC(C)(C)[C@@H]2C(=O)O)c1cccs1 (stereo partly drawn) [Example 23, Sodium D,L-α-(3-dimethylaminocarbonyl-3-methyl-ureido)-2-thienylmethylpenicillin] |
| 4-20 units/ml |  | > 500 units/ml | > 500 units/ml | 100-500 units/ml | 100-500 units/ml | > 500 units/ml | > 500 units/ml | CN(C(=O)CCCl)C(=O)NC(C(=O)N[C@@H]1C(=O)N2[C@@H]1SC(C)(C)[C@@H]2C(=O)O)C1CC=CCC1 (stereo partly drawn) [Example 36, Sodium α-(3-β-chloropropionyl-3-methyl-ureido)-cyclohex-3-enylmethylpenicillin] |
| < 0.8 units/ml | 4-20 units/ml | 20-100 units/ml | > 500 units/ml | 4-20 units/ml | ~ 20 units/ml | 20-100 units/ml |  | CN(C(=O)NC(C(=O)N[C@@H]1C(=O)N2[C@@H]1SC(C)(C)[C@@H]2C(=O)O)c1cccs1)C(=O)c1ccco1 (stereo partly drawn) [Example 22, Sodium D,L-α-(3-[2-furoyl]-3-methyl-ureido)-2-thienylmethylpenicillin] |
| < 0.8 units/ml |  | 4-20 units/ml | 100-500 units/ml | 4-20 units/ml | 20-100 units/ml | 4-20 units/ml | 4-20 units/ml | CSc1ccc(C(NC(=O)N(C)C(=O)c2ccccc2)C(=O)N[C@@H]2C(=O)N3[C@@H]2SC(C)(C)[C@@H]3C(=O)O)cc1 (stereo partly drawn) [Example 33, Sodium α-(3-benzoyl-3-methyl-ureido)-4-methylthiobenzylpenicillin] |

Further lines, the molecule ahead of its results:

| Molecule | MIC (Staph. aureus 133) | MIC (Proteus vulg. 3400) | MIC (Klebsiella 63) | MIC (E. coli A 261) | MIC (E. coli C 165) | MIC [1] | MIC (Psdm. aerug. Walter) | MIC (Proteus vulg. 1017) |
| --- | --- | --- | --- | --- | --- | --- | --- | --- |
| CC1(C)S[C@@H]2[C@H](NC(=O)[C@H](NC(=O)N3CCCCCC3=O)c3ccccc3)C(=O)N2[C@H]1C(=O)O [Example 101 B, Sodium D(-)-α-(hexahydroazepin-2-on-1-yl-carbonyl-amino)-benzylpenicillin] | < 0.8 units/ml |  | 100-500 units/ml | > 500 units/ml | 20-100 units/ml | ~20 units/ml | 100-500 units/ml | 100-500 units/ml |
| COC(=O)N(C)C(=O)NC(C(=O)N[C@@H]1C(=O)N2[C@@H]1SC(C)(C)[C@@H]2C(=O)O)c1cccs1 (stereo partly drawn) [Example 20, Sodium D,L-α-(3-methoxycarbonyl-3-methyl-ureido)-2-thienylmethylpenicillin] | < 0.8 units/ml | 100-500 units/ml | 20-100 units/ml | > 500 units/ml | 20-100 units/ml | 20-100 units/ml | 100-500 units/ml |  |
| CC1(C)S[C@@H]2[C@H](NC(=O)[C@H](NC(=O)N3CCCC3=O)c3ccccc3)C(=O)N2[C@H]1C(=O)O [Example 102, Sodium D(-)-β-(pyrrolid-2-on-1-yl-carbonylamino)-benzylpenicillin] | < 0.8 units/ml |  |  | > 500 units/ml |  |  |  |  |
| CN(C=O)C(=O)N[C@@H](C(=O)N[C@@H]1C(=O)N2[C@@H]1SC(C)(C)[C@@H]2C(=O)O)c1ccccc1 [Example 103, Sodium D(-)-β-(3-formyl-3-methyl-ureido)-benzylpenicillin] | < 0.8 units/ml |  |  | > 500 units/ml | 4-20 units/ml | 20-100 units/ml |  | 100-500 units/ml |
| CCCN(C(=O)N[C@@H](C(=O)N[C@@H]1C(=O)N2[C@@H]1SC(C)(C)[C@@H]2C(=O)O)c1ccccc1)C(=O)c1ccc(OC)c([N+](=O)[O-])c1 [Example 109, Sodium D(-)-α-(3-[3-nitro-4-methoxybenzoyl]-3-n-propyl-uredio)-benzylpenicillin] | 0.8 units/ml |  | 100-500 units/ml | > 500 units/ml | 4-20 units/ml | 4-20 units/ml | 50-100 units/ml | 20-100 units/ml |
| C=CCN(C(=O)NC(C(=O)N[C@@H]1C(=O)N2[C@@H]1SC(C)(C)[C@@H]2C(=O)O)c1cccs1)C(=O)c1ccccc1 (stereo partly drawn) [Example 21, Sodium D,L-α-(3-benzoyl-3-allyl-ureido)-2-thienylmethylpenicillin] | < 0.8 units/ml | 20-100 units/ml | 20-100 units/ml | > 500 units/ml | 20-100 units/ml | 100-500 units/ml | 100-500 units/ml |  |
| CC1(C)S[C@@H]2[C@H](NC(=O)[C@H](NC(=O)N(C(=O)c3ccccc3)c3ccccc3)c3ccccc3)C(=O)N2[C@H]1C(=O)O [Example 99 B, Sodium D(-)-α-(3-benzoyl-3-phenyl-ureido)-benzylpenicillin] | < 0.8 units/ml |  | > 500 units/ml | > 500 units/ml | 20-100 units/ml | 100-500 units/ml | 100-500 units/ml | ~500 units/ml |
| CCCN(C(=O)N[C@@H](C(=O)N[C@@H]1C(=O)N2[C@@H]1SC(C)(C)[C@@H]2C(=O)O)c1ccccc1)C(=O)c1ccco1 [Example 92 B, Sodium D (-)-α-(3-[2-furoyl]-3-n-propyl-ureido)-benzylpenicillin] | < 0.8 units/ml |  |  | > 500 units/ml |  |  |  |  |
| CN(C(=O)CCCCl)C(=O)NC(C(=O)N[C@@H]1C(=O)N2[C@@H]1SC(C)(C)[C@@H]2C(=O)O)c1cccs1 (stereo partly drawn) [Example 5, Sodium D,L-(3-γ-chlorobutyryl-3-methyl-ureido)-(2-thienyl)methylpenicillin] | < 0.8 units/ml | 20-100 units/ml | 20-100 units/ml | 100-500 units/ml | 4-20 units/ml | 100-500 units/ml | 20-100 units/ml |  |
| CN(C(=O)N[C@@H](C(=O)N[C@@H]1C(=O)N2[C@@H]1SC(C)(C)[C@@H]2C(=O)O)c1ccccc1)C(=O)c1ccco1 [Example 91, Sodium D(-)-α-(3-[2-furoyl]-3-methyl-ureido)-benzylpenicillin] | < 0.8 units/ml |  |  |  |  |  |  |  |
| CCN(C(=O)N[C@@H](C(=O)N[C@@H]1C(=O)N2[C@@H]1SC(C)(C)[C@@H]2C(=O)O)c1ccccc1)C(=O)c1ccco1 [Example 93 B, Sodium D(-)-α-(3-[2-furoyl]-3-ethyl-ureido)-benzylpenicillin] | < 0.8 units/ml |  |  | > 500 units/ml |  |  |  |  |
| Sodium D(-)-α-(3-[2-furoyl]-3-phenyl-ureido)-benzylpenicillin [Example 105 B] | < 0.8 units/ml |  | 100-500 units/ml | > 500 units/ml | 4-20 units/ml | 20-100 units/ml | > 500 units/ml | > 500 units/ml |
